Test [1] can be described thus: binding of serially diluted alkaline-phosphatase linked peptides to immobilized biotinylated vancomycin. The note with it: absorbance at 405 nm. An excerpt: From the peptide amino acid sequence […] (SEQ ID NO: 1) additional peptides were designed and expressed in the bacterial expression system described herein to further evaluate structure-function relationships. A truncated peptide comprising the amino acid sequence of SEQ ID NO:9 (STCLIDMYGVCH) was expressed and compared to a peptide comprising SEQ ID NO:1 for binding affinity for glycopeptide antibiotic. Also produced were a dimer of this truncated peptide (SEQ ID NO:10; […]), a D to A substitution (SEQ ID NO:11; STCLIAMYGVCH), a D to E substitution (SEQ ID NO:12; STCLIEMYGVCH), and a G to S substitution (SEQ ID NO:13; STCLIDMYSVCH). Relative binding strengths of these peptides and of other representative peptides to glycopeptide antibiotic were determined by EC50 values for binding to vancomycin or other glycopeptide antibiotic.
(§1) A typical binding assay for glycopeptide antibiotic was performed according to the following procedure. The concentrations of the alkaline-phosphatase linked variant peptides were normalized to equal levels based on the alkaline-phosphatase activity as determined in a kinetic assay with the alkaline-phosphatase specific chromogenic substrate p-nitrophenyl phosphate (p-NPP). A streptavidin coated microtiter plate was coated with biotinylated vancomycin. Serial dilutions of normalized alkaline-phosphatase linked peptides were allowed to bind to the immobilized vancomycin and detected by addition of the alkaline-phosphatase specific chromogenic substrate p-NPP. Relative affinity for peptide binding to the immobilized vancomycin was determined by measuring the absorbance at 405 nm of the colored product of the alkaline phosphatase reaction. […] EC50 values for the synthetic peptides binding to vancomycin were determined as described in Example 1 and are shown in Table 3. Preferred are peptides that bind to glycopeptide antibiotic with binding affinity of EC50 of less than or equal to about 1 μM, and more preferably, in the nanomolar range (e.g., <0.1 μM).

Test [2] deals with Staphylococcus aureus strain MZ100. The test can be described thus: in vitro infection assay on titanium beads, colony counts. It is filed as cell-based. Conditions: peptide 5 μM + vancomycin 100 μM. As for the experimental part:
To illustrate the antibacterial activity of the peptide compositions, an in vitro infection assay was performed. Briefly, a surface material was contacted with one of the peptide compositions such that the peptide binds to the surface material. The peptide composition can have glycopeptide antibiotic already bound thereto at the time of contacting the peptide with the surface material, or the glycopeptide antibiotic can be contacted with the peptide in a step subsequent to binding the peptide composition to the surface material. The surface material was washed to remove unbound glycopeptide antibiotic, and then contacted with bacterial cells (added from a culture in log phase growth) and incubated to promote bacterial growth. The surface material was washed, and any bacterial cells colonizing the surface material removed and plated to assess bacterial growth.
In one example, Staphylococcus aureus strain MZ100 was used as the representative bacterial cells. First, as a representative surface material, titanium beads were sterilized in acetone in a sonication bath, and then air dried in a sterile hood. The beads were individually placed in sterilized microfuge tubes (one bead per tube). […] The next day, the plates were examined for bacterial growth, and the number of bacterial colonies was quantified per plate.

Test [3] has as its system S. aureus. The test can be described thus: bacterial growth with loaded titanium beads, optical density at 600 nm. The format is cell-based. Conditions: peptide 10 μM + vancomycin 200 μM, 37° C. for 18 hours. Here is the method: In another experiment, antimicrobial activity of the peptide compositions was measured as follows. Titanium beads were placed into wells of a 96 well plate. To each well was added a 10 μM of peptide composition comprising at least one surface-binding peptide coupled to at least one glycopeptide antibiotic binding peptide and vancomycin at 200 μM. The appropriate negative controls were also included. The plate was incubated for 1 hour at 20° C., and then the wells and beads were washed 4 times with buffer. After washing, the beads were transferred to the well of a plate containing S. aureus in log phase growth and incubated at 37° C. for 18 hours. Bacterial growth was assessed by reading optical density at 600 nm.

Test [4] is described as follows: binding assay: biotinylated synthetic peptide on streptavidin plate, titrated with biotinylated glycopeptide antibiotic. Here is the method:
A typical binding assay for glycopeptide antibiotic was performed according to the following procedure. Briefly, synthetic peptides comprising an amino acid sequence to be characterized for binding were biotinylated to facilitate immobilization on streptavidin-coated 96-well plates. The microtiter plates were coated with streptavidin by adding 50 μl of a 10 μg/ml streptavidin solution in 0.1M NaHCO3, and incubating the plates for at least 3 hours. The plate wells were blocked by adding 150 μl of a 1% BSA solution in 0.1 NaHCO3 with incubation for at least 2 hours, and the plates were stored at 4° C. until needed. Before use, the streptavidin plates were washed extensively in buffer-T. Added per well was peptide (100 μl 0.1 μM peptide in buffer-T), and then incubated for 30 minutes at room temperature with shaking. 200 μl of 0.5 mM biotin in buffer-T was added to block the remaining streptavidin sites, and plates were incubated for 15 minutes at room temperature. Plates were then washed with buffer-T to remove the excess biotin and peptide. Serial dilutions of biotinylated glycopeptide antibiotic in buffer-T were added (100 μl) to each well, representing a range of concentrations between 100 pM and 100 μM. Plates were incubated for 30 minutes at room temperature with shaking prior to washing several times with buffer-T. Glycopeptide antibiotic was then detected by adding 100 μl of a diluted streptavidin-alkaline phosphatase conjugate to each well and incubated at room temperature for 30 minutes. Excess conjugate was removed by repeated washes with buffer-T, and the amount of alkaline phosphatase remaining in the well was detected using a pNPP (para-nitrophenylphosphate) colorimetric enzymatic assay. The relative amount of glycopeptide antibiotic captured by the peptides was determined by measuring the absorbance at 405 nm of the colored product of the alkaline phosphatase reaction. The EC50 was determined for each peptide relative to the binding affinity for the glycopeptide antibiotic used in the assay, as shown in Table 1 (with vancomycin as a representative glycopeptide antibiotic).
as §1

Test [5] addresses vancomycin. The test can be described thus: competition on plates: immobilised biotinylated SEQ ID NO: 1 peptide, 20 nM biotinylated vancomycin, Lys-D-Ala-D-Ala titrated.
For test [6], the target named is vancomycin. The test can be described thus: plate assay: biotinylated peptide on streptavidin, biotinylated vancomycin titrated, streptavidin-AP detection.
Test [7] concerns the target vancomycin. The test is described as follows: plate assay as in Example 1: synthetic peptide on streptavidin, biotinylated vancomycin titrated.
For test [8], the target named is vancomycin. The test can be described thus: titanium beads with 10 µM peptide composition and 200 µM vancomycin, washed, vancomycin eluted with HCl and measured by HPLC.
Setting [9] is: synthetic peptides binding to vancomycin, read-out: EC50, binding to glycopeptide antibiotic.
Where [10] appears, read: synthetic peptides, biotinylated vancomycin, read-out: EC50 (μM) for vancomycin binding.

Where two headings read alike, the source gives them in different places. *1 amine or outer side, *2 acyl side, *3 side chain or, on linkers, in order; H or OH if unused. Bridges are numbered along the chain shown (N, C = ends). Where no end group is shown, it is not given here. [ ]: non-standard residue; d: D form. (miniPEG)2 = linker of two miniPEG units, each HN-CH2CH2-O-CH2CH2-O-CH2-C(=O), O=C(COCCOCCN[*:1])NCCOCCOCC(=O)[*:2]

Regarding 11 (STCLIAMYGVCH) [compound 11], the “glycopeptide antibiotic binding of alkaline-phosphatase linked peptides” value in test [1] is “no detectable glycopeptide antibiotic binding”. Still for that read-out and setting: the value for 12 (STCLIEMYGVCH) [compound 12] was “no detectable glycopeptide antibiotic binding”. Still for that read-out and setting: the value for 13 (STCLIDMYSVCH) [compound 13] was “no detectable glycopeptide antibiotic binding”.

Take “119 (NHTISKNHKKKNKNSNKTR) [compound 119]”: the “bacterial growth on the plates” value in test [2] is given as “completely inhibited”. For the molecule “120 (H-SSSCLIDMYGVCHNFDGAYDSSRG[(miniPEG)2]SSHRTNHKKNNPKKKNKTRGSSGK-NH2; disulfide 4-12) [compound 120]”, in test [3], the “inhibition of bacterial growth (optical density at 600 nm)” value is given as “complete inhibition”. On the same count and under the same terms, the value for “130 (SSCLIDIYGVCHNFDAY[(miniPEG)2]HKKNNPKKKNKTRGSSK; disulfide 3-11 (inferred)) [compound 130]” was “complete inhibition”. The same measure, in the same setting: the value for “131 (SSCLIDIYGVCHNFDAY[(miniPEG)2]SSHRTNHKKNNPKKKNKTRGSSGK; disulfide 3-11 (inferred)) [compound 131]” was “complete inhibition”. In the case of CLFDIFGVCHSFDGAYDS [compound 2], the EC50 (usually the concentration giving half of the maximal effect) in test [4] (setting [9]) was less than 0.1 µM; in test [4] (setting [10]), 0.06 µM. With Lys-D-Ala-D-Ala (peptide), in test [5], the IC50 (as a rule, the concentration that gives 50% inhibition) turned out to be 10000 nM and the percent inhibition at 100 µM to 200 µM Lys-D-Ala-D-Ala is 100%. NHTISKNHKKKNKNSNKTR [SEQ ID NO: 119]: the “# of bacterial colonies” value in test [2] (2 hour incubation) is on record as 0. On to PCELIDMFGNDHCP [compound 3], for which the EC50 in test [4] (setting [9]) is less than 0.1 µM; in test [4] (setting [10]), 0.82 µM. Regarding SCDMLFCENFSGSGNNWFS [compound 4], the EC50 in test [4] (setting [10]) was found to be 10 µM. On the same count and under the same terms, with SLIDMYGVCHNFDGAYDS [compound 5] the figure was 10 µM.

Turning to STCLIDMYGVCH [compound 9], the EC50 in test [4] (setting [9]) was less than 1 µM. Moreover, in test [1], the “glycopeptide antibiotic binding of alkaline-phosphatase linked peptides” value was “displayed glycopeptide antibiotic binding”. On the same counts, the results for STCLIDMYGVCHSSCLIDMYGVCH [compound 10] are less than 1 µM and “displayed glycopeptide antibiotic binding”. In turn, SLIDMYGVCHNFDGAYDS (also: biotinylated, site not given here) [synthetic peptide comprising SEQ ID NO: 5] gave an EC50 in test [6] of 10000 nM. On the same count and under the same terms, the value for SCDMLFCENFSGSGNNWFS (cysteine pairing not given here; also: biotinylated, site not given here) [synthetic peptide comprising SEQ ID NO: 4] was 10000 nM. Consider PCELIDMFGNDHCP (cysteine pairing not given here; also: biotinylated, site not given here) [synthetic peptide comprising SEQ ID NO: 3], for which the results for the concentration for a half-maximal effect (EC50) in test [7] and in test [6] were less than 100 nM and 820 nM, respectively. In test [7], STCLIDMYGVCHSSCLIDMYGVCH (cysteine pairing not given here; also: biotinylated, site not given here) [synthetic peptide comprising SEQ ID NO: 10] came in with an EC50 of less than 1000 nM. In test [8], SSCLIDIYGVCHNFDAY[(miniPEG)2]HKKNNPKKKNKTRGSSK (disulfide 3-11 (inferred)) [peptide composition SEQ ID NO: 130] came in with a Picomoles vancomycin/cm^2 (picomoles/cm^2) of 83.

For STCLIDMYGVCH (cysteine pairing not given here; also: biotinylated, site not given here) [synthetic peptide comprising SEQ ID NO: 9], in test [7], the concentration for a half-maximal effect (EC50) was less than 1000 nM. As for CLFDIFGVCHSFDGAYDS (cysteine pairing not given here; also: biotinylated, site not given here) [synthetic peptide comprising SEQ ID NO: 2], the EC50 was less than 100 nM in test [7] and 60 nM in test [6]. As to SSCLIDIYGVCHNFDAY[(miniPEG)2]SSHRTNHKKNNPKKKNKTRGSSGK (disulfide 3-11 (inferred)) [peptide composition SEQ ID NO: 131], in test [8], the Picomoles vancomycin/cm^2 (picomoles/cm^2) turned out to be 76. Turning to CLIDMYGVCHNFDGAYDS (cysteine pairing not given here; also: biotinylated, site not given here) [synthetic peptide comprising SEQ ID NO: 1], the values for the concentration giving a half-maximal response (EC50) in test [7] and in test [6] were less than 100 nM and 100 nM, respectively.

The record behind these values is patent US20100098737A1, “METHODS AND COMPOSITIONS FOR DELIVERY OF GLYCOPEPTIDE ANTIBIOTICS TO MEDICAL DEVICE SURFACES” (priority 2008, published 2010).
